# Measured values from patent US20240016804A1, “METHODS AND MATERIALS FOR ASSESSING AND TREATING HYPERTENSIVE DISORDERS” (Mayo Foundation for Medical Education and Research, priority 2019, published 2024).
# Test system: PE-MSC
# Assay: Apoptosis assay for MSC (Annexin V, IncuCyte S3, Red Object Count), PE-MSC
# Type: cell-based, human
# Settings: dose response 1, 2, 5 and 10 μM, 24 hours
# Procedure: MSC isolation from adipose tissue: Abdominal fat tissue (3-5 g) obtained during C-section was cultured at 37° C./5% CO2 in Advanced MEM media supplemented with 5% platelet lysate (PLTmax, Mill Creek Life Sciences, Rochester, MN), which provides a robust growth medium. The third passage of cells was used for phenotype/function analysis. MSC were positive to CD90, CD44, and CD105, negative to CD34, CD31, and CD45 by Flow Cytometry (FlowSight™, Amnis, Seattle, WA), and were able to transdifferentiate into adipocytes, chondrocytes, and osteocytes. For studies in non-pregnant subjects, MSC were isolated from three healthy kidney donors at time of kidney donation.
# Apoptosis was assessed by Annexin V reagent (Essen Bioscience) using the IncuCyte S3 Live-Cell Analysis System (Essen Bioscience).
# The initial dose response experiments were performed to determine the optimal Dasatinib concentration using the apoptotic assay and IncuCyte S3 Live-Cell Analysis System (Essen Bioscience). Approximately 1×10^6 MSC (PE and NP) in passage #4, were treated with the senolytic drug, Dasatinib at concentrations of 1, 2, 5 and 10 μM (dissolved in 0.1% DMSO) for 24 hours. Three groups were analyzed: 1) cells incubated in media, 2) vehicle: cells treated with 0.1% DMSO, 3) cells treated with Dasatinib. […] Annexin V, added at the beginning of the treatment, labeled apoptotic cells yielding red fluorescence. […]
structure (smiles),measurement,value
Cc1nc(Nc2ncc(C(=O)Nc3c(C)cccc3Cl)s2)cc(N2CCN(CCO)CC2)n1 [Dasatinib],Optimal concentration (from ratios of apoptotic cells),1 µM
